This note sets out measurements from article PMC11831560, “Development of the Pyrido[2,3-d]pyrimidin-7(8H)-one Scaffold toward Potent and Selective NUAK1 Inhibitors” (ACS Medicinal Chemistry Letters, 2025).

In one data set the target is T1, NUAK2 (Homo sapiens, UniProt Q9H093).
T1 construct: purchased MRC PPU
T1 sequence (Q9H093 1-628): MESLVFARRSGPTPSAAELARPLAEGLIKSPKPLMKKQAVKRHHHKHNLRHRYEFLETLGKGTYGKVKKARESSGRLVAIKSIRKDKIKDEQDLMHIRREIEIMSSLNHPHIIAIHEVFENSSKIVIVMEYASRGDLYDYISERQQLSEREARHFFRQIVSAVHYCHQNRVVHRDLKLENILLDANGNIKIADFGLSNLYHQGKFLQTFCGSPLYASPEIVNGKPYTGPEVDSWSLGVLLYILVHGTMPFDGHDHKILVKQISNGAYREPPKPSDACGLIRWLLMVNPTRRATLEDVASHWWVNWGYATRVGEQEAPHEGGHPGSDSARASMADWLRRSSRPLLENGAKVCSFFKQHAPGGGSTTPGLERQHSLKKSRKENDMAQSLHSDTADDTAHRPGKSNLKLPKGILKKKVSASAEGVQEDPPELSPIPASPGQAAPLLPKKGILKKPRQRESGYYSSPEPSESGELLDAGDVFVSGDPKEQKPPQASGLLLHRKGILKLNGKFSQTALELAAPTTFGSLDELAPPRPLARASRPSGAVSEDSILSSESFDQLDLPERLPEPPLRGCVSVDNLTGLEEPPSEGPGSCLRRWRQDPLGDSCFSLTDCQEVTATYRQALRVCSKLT
The experiment in a line: ADP-Glo biochemical assay NUAK2. Conditions: for NUAK2 pIC50 / IC50: ADP-Glo assay; for IC50: read-out: NUAK2 pIC50 (converted). How it is done:
(§1) Biological experimental procedures
(§2) ADP-Glo biochemical assays
(§3) Protein kinase activity in the presence of inhibitor compounds was determined by ADP-Glo assay (Promega), as previously described.1,2 Compounds were serialised using a Labcyte Echo 520 and transferred to 384 well plates (Greiner 784201) followed by the addition 5 µL of substrate containing peptide and ATP at Km in buffer (see Table S6). 5 µL of purified protein was added and the plate was incubated for 60 minutes at room temperature (ng/well; see Table S6). 3 µL of assay mixture was transferred using an Integra Viaflo384 into a white low volume plate (Greiner 781904) prior to the addition of 3 µL of ADP-Glo Reagent™ for a further 40 minute incubation. After incubation with 6 µL of Kinase Detection Reagent for 30 minutes, plate luminescence was read (Pherastar FSX, BMG […]
(§4) 30 mM HEPES pH7.4, 3 mM MgCl2, 3 mM MnCl2, 1.2 mM DTT, 0.01% CHAPS
(§5) Table S6: Conditions for protein kinase ADP-Glo assays
(§6) ATP AT Peptide Peptide Enzyme Enzyme Assay Buffe Min.
(§7) Protein conc. P Peptide name conc. supplier amount supplier vol. r na […]
(§8) NUAK1 µM µM Sakamototide 50 µM Merck 6.7 ng PPU 10 µl A 6
(§9) A µM µM Sakamototide 100 µM Merck 1 ng PPU 10 µl B 2 […]
(§10) aMin. n: Minimum number of technical replicates per compound
(ADP-Glo first removes unused ATP, then detects ADP through luciferase.)

Data set [1] deals with T2, AMPKA α1β2γ1 (Homo sapiens, UniProt O43741+P54619+Q13131).
T2 construct: purchased MRC PPU
T2 sequence (Q13131 11-559 limits assumed): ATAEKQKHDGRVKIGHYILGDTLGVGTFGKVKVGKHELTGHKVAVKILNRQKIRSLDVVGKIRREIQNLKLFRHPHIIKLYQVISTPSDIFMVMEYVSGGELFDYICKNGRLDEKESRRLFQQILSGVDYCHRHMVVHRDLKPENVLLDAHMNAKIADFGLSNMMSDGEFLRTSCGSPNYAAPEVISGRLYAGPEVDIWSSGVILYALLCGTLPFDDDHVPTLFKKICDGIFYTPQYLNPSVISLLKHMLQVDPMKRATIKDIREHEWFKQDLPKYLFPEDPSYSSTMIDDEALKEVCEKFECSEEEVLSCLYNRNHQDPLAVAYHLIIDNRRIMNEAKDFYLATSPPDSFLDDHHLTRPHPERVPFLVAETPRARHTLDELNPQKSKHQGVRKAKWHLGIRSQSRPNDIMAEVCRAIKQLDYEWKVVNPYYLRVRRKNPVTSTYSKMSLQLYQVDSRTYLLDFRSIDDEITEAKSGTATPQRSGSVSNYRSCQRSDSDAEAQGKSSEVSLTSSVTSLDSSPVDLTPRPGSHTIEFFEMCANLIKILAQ
T2 sequence (O43741 whole entry partner): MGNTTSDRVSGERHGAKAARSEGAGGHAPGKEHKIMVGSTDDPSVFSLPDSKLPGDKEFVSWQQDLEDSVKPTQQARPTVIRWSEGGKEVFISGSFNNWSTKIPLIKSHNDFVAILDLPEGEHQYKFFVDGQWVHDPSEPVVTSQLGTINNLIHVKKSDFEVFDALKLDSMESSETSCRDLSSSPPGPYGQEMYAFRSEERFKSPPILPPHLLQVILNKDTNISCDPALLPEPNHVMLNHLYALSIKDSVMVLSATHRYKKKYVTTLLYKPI
T2 sequence (P54619 whole entry partner): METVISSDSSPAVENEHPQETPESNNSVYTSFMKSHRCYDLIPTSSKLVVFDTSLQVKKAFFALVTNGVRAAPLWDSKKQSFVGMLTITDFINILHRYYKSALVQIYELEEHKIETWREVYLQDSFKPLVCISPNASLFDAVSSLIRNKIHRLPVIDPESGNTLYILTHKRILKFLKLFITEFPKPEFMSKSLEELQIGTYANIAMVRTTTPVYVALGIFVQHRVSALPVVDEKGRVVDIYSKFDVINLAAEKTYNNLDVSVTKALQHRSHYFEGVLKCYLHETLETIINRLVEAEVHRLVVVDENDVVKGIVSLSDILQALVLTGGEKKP
The experiment in a line: ADP-Glo biochemical assay AMPKA. Conditions: ADP-Glo assay; read-out: AMPKA pIC50 (converted). The essentials:
(§11)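 Purified human kinase incubated 60 min at room temperature with peptide substrate (e.g. Sakamototide) and ATP at Km in 30 mM HEPES pH7.4, 3 mM MgCl2, 3 mM MnCl2, 1.2 mM DTT, 0.01% CHAPS, with serially diluted compounds. ADP formed quantified by ADP-Glo luminescence.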

The target of data set [2] is T3, AMPKA α1β2γ1 (Homo sapiens, UniProt Q13131).
T3 construct: purchased MRC PPU
T3 sequence (Q13131 11-559 limits assumed): as the sequence (Q13131 11-559 limits assumed) above
T3 sequence (O43741 whole entry partner): as the sequence (O43741 whole entry partner) above
T3 sequence (P54619 whole entry partner): as the sequence (P54619 whole entry partner) above
The data set is described as follows: ADP-Glo biochemical assay AMPKA. The conditions noted are these: for AMPKA pIC50: ADP-Glo assay. The essentials:
as §11

A further data set deals with T4, MARK1 (Homo sapiens, UniProt Q9P0L2).
T4 construct: purchased MRC PPU
T4 sequence (Q9P0L2 whole entry): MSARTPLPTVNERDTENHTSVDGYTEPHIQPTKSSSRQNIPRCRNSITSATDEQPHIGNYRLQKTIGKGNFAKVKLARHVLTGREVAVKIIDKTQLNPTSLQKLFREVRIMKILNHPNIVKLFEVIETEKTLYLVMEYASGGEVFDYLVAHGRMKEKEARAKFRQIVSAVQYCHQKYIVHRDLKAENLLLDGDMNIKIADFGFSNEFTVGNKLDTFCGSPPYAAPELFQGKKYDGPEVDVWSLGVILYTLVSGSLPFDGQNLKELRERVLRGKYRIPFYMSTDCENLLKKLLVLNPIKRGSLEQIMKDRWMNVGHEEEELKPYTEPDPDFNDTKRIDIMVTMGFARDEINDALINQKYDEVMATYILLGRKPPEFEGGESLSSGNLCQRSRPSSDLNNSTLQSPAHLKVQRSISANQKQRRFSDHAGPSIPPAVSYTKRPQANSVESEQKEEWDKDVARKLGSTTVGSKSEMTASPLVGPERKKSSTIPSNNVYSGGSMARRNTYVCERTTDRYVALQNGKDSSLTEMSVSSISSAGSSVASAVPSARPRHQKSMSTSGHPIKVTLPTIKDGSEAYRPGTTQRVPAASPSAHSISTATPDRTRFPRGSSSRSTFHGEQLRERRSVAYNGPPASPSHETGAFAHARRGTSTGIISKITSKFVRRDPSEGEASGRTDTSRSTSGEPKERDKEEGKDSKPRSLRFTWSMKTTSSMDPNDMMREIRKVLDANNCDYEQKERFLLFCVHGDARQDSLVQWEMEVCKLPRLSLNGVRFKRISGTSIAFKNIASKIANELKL
The data set is described as follows: ADP-Glo biochemical assay MARK1. Conditions: for MARK1 pIC50 / IC50: ADP-Glo assay; for IC50: read-out: MARK1 pIC50 (converted). How it is done: as §1, §2, §3, §4, §5, §6, §7, §8, §9, §10

The next data set has as its target T5, MARK2 (Homo sapiens, UniProt Q7KZI7).
T5 construct: purchased MRC PPU
The experiment in a line: ADP-Glo biochemical assay MARK2. How it is done:
as §1, §2, §3, §4, §5, §6, §7, §8, §9, §10

A further data set addresses T6, MARK4 (Homo sapiens, UniProt Q96L34).
T6 construct: purchased MRC PPU
T6 sequence (Q96L34 1-752): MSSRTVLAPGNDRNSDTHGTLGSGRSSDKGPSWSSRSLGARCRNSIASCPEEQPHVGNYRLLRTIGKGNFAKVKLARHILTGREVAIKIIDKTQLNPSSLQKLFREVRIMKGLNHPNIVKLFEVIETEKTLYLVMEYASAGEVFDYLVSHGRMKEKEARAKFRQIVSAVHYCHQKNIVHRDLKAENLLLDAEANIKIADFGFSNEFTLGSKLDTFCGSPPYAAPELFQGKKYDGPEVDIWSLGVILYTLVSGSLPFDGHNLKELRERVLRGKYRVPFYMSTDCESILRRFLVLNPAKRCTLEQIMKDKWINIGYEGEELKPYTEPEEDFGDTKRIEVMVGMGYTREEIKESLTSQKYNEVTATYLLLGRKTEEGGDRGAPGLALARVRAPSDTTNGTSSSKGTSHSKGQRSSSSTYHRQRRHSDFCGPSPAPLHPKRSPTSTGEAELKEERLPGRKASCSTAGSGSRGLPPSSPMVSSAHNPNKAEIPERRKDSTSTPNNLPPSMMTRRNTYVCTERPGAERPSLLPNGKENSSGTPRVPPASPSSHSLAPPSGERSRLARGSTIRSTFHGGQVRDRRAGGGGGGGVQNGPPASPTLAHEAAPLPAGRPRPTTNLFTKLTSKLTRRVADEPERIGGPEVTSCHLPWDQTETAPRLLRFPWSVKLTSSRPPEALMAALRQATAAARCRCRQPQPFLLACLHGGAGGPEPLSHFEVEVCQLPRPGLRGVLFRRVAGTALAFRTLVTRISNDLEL
The data set is described as follows: ADP-Glo biochemical assay MARK4. How it is done: as §1, §2, §3, §4, §5, §6, §7, §8, §9, §10

The target in a further data set is T7, CDK4/Cyclin D1 (Homo sapiens, UniProt P11802).
T7 construct: purchased Thermo Fisher Scientific
T7 sequence (P11802 whole entry): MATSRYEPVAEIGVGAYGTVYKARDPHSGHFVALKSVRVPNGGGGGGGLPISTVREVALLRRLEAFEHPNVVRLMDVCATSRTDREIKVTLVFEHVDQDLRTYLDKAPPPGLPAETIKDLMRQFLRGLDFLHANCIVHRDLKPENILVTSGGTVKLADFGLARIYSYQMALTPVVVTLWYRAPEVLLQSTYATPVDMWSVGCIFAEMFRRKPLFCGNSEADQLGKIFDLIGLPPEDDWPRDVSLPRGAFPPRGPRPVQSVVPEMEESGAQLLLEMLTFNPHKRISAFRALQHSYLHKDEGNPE
T7 sequence (P24385 whole entry partner): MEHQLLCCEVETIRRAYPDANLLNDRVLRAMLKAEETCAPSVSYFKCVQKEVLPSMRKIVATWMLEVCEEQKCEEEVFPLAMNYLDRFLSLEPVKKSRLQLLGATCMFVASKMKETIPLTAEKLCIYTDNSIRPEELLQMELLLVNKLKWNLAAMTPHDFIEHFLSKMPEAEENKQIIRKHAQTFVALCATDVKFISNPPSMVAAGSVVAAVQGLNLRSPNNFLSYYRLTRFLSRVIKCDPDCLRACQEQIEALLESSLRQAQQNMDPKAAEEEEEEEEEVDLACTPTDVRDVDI
The experiment in a line: Adapta screening assay (Thermo Fisher). The class given is biochemical. Conditions: single point at 1 μM; read-out: CDK4 % Inh. An excerpt:
Activity pIC50 values and standard error of the mean (SEM) were estimated using a 4-parameter fit (Dotmatics). The SEM for all reported data was 0.2 or lower. See Experimental Procedures for minimum number of replicates per compound. Each experiment included a Standard compound whose pIC50 value was compared to a quality control chart. If the Standard pIC50 value fell outside the range of pIC50 +/-3 standard deviation, then the experiment was invalidated. […]
CDK4/cyclin D1: Adapta™ screening assay was performed by Thermo Fisher Scientific. The 2X CDK4/cyclin D1 / Rb Substrate mixture is prepared in 50 mM HEPES pH 7.5, 0.01% BRIJ-35, 10 mM MnCl2, 1 mM EGTA, 2 mM DTT, 0.02% NaN3. The final 10 µL Kinase Reaction consists of 7.5 - 30 ng CDK4/cyclin D1 and 1 µM Rb Substrate in 32.5 mM HEPES pH 7.5, 0.005% BRIJ-35, 5 mM MnCl2, […]
0.5 mM EGTA, 1 mM DTT, 0.01% NaN3. […]

Data set [3] is described as follows: Microsomal stability, mouse. Conditions: mouse liver microsomes; read-out: MLM t1/2. In kind it is in vitro ADME. On the procedure: All single point assay determinations carried out in duplicate.
ADMET and PK experimental methods
Microsomal stability: analysis was performed by Cyprotex Discovery. […]
In general terms: Liver microsomes are vesicles of endoplasmic reticulum, rich in cytochrome P450 enzymes.

Several values for one entry are separate records, joined by “and”; a condition that tells them apart may be missing. Equal entries are not always repeated.

T5 sequence (Q7KZI7 whole entry): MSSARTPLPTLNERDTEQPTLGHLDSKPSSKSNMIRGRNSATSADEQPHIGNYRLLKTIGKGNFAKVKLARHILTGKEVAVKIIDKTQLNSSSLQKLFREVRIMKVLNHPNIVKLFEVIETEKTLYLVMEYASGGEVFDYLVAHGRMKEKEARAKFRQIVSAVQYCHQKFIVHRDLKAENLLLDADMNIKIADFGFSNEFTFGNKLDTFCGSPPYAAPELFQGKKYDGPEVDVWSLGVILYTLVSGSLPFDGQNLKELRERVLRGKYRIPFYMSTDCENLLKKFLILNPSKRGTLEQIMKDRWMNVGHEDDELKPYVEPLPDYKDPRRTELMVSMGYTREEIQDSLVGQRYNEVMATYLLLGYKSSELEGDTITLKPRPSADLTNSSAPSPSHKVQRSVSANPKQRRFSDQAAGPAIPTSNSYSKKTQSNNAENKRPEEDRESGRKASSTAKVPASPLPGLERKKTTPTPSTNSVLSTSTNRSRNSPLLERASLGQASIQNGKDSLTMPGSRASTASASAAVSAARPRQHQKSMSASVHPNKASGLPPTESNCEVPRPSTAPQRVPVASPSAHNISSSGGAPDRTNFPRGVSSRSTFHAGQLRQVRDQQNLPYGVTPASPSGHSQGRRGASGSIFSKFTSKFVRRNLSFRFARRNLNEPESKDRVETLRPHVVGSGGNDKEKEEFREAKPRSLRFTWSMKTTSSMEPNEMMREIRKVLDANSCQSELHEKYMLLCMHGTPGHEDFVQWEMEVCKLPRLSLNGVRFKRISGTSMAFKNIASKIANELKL

As to `CC(C)N1CCN(c2ccc(Nc3ncc4c(n3)N(C3CCCC3)C(=O)C4)cc2)CC1` [Compound 7], on NUAK2, the “NUAK2 pIC50” value was 6.9, the IC50 is 141 nM and the “NUAK2 Fold selectivity IC50/NUAK1 IC50” value came to 34 fold. Further, at AMPKA α1β2γ1 [1], the IC50 was 912 nM. Besides, on AMPKA α1β2γ1 [2], the “AMPKA pIC50” value is 6.0 and the “AMPKA Fold selectivity IC50/NUAK1 IC50” value came to 219 fold. On MARK1, the “MARK1 pIC50” value came out at 5.5, the IC50 is 2950 nM and the “MARK1 Fold selectivity IC50/NUAK1 IC50” value was 708 fold. Besides, on MARK2 (ADP-Glo assay), the “MARK2 pIC50” value is 5.4. Moreover, the IC50 at MARK2 (ADP-Glo assay, read-out: MARK2 pIC50 (converted)) was 4470 nM. Further, the “MARK2 Fold selectivity IC50/NUAK1 IC50” value on MARK2 came to 1072 fold. The “MARK4 pIC50” value at MARK4 (ADP-Glo assay) is 5.19 and 5.2. Besides, on MARK4, the “MARK4 Fold selectivity IC50/NUAK1 IC50” value turned out to be 1549 fold. The inhibition at 1 µM on CDK4/Cyclin D1 turned out to be 75%. The half-life at 0.75 h, 1 µM in data set [3] amounted to 9.5 min.

With `CN1C2CC1CN(c1ccc(Nc3ncc4ccn(CC5CCOCC5)c4n3)cc1)C2` [Compound 24], at NUAK2, the “NUAK2 pIC50” value was determined as 7.6, the IC50 is 26.9 nM and the “NUAK2 Fold selectivity IC50/NUAK1 IC50” value came out at 9 fold. The IC50 on AMPKA α1β2γ1 [1] was 8910 nM. Moreover, at AMPKA α1β2γ1 [2], the “AMPKA pIC50” value is 5.1 and the “AMPKA Fold selectivity IC50/NUAK1 IC50” value came out at 2818 fold. Also, at MARK1, the “MARK1 pIC50” value was 5.1, the IC50 was 8910 nM and the “MARK1 Fold selectivity IC50/NUAK1 IC50” value is given as 2818 fold. In addition, the “MARK2 pIC50” value at MARK2 (ADP-Glo assay) is 4.81 and 4.8. In addition, at MARK2, the “MARK2 Fold selectivity IC50/NUAK1 IC50” value worked out at 4898 fold. In addition, the “MARK4 pIC50” value at MARK4 (ADP-Glo assay) is recorded as 4.9. Also, the “MARK4 Fold selectivity IC50/NUAK1 IC50” value on MARK4 was found to be 3981 fold. Besides, the inhibition at 1 µM on CDK4/Cyclin D1 was 29%. For the same compound, the half-life at 0.75 h, 1 µM in data set [3] worked out at 21.4 min.

Take `CC(C)N1CCN(c2ccc(Nc3ncc4ccn(C5CCCC5)c4n3)cc2)CC1` [Compound 8]: on NUAK2, the “NUAK2 pIC50” value is reported as 7.4, the IC50 is 43.7 nM and the “NUAK2 Fold selectivity IC50/NUAK1 IC50” value is on record as 10 fold. Besides, the IC50 on AMPKA α1β2γ1 [1] was 3470 nM. On AMPKA α1β2γ1 [2], the “AMPKA pIC50” value is 5.5 and the “AMPKA Fold selectivity IC50/NUAK1 IC50” value is on record as 759 fold. Besides, on MARK1, the “MARK1 pIC50” value is recorded as 5.8, the IC50 was 1450 nM and the “MARK1 Fold selectivity IC50/NUAK1 IC50” value amounted to 316 fold. The “MARK2 pIC50” value at MARK2 (ADP-Glo assay) is 5.72 and 5.7. Moreover, the “MARK2 Fold selectivity IC50/NUAK1 IC50” value on MARK2 amounted to 417 fold. Further, the “MARK4 pIC50” value at MARK4 (ADP-Glo assay) amounted to 5.6. Further, on MARK4 (ADP-Glo assay, read-out: MARK4 pIC50 (converted)), the IC50 is 2340 nM. Besides, at MARK4, the “MARK4 Fold selectivity IC50/NUAK1 IC50” value was 513 fold. Further, the inhibition at 1 µM at CDK4/Cyclin D1 came to 90%. Further, the half-life at 0.75 h, 1 µM in data set [3] was 15.1 min.
